The NIST ThermoML archive (doi:10.1016/j.jct.2016.08.026)

Test: xn = mol fraction of the nth substance listed
Conditions: 101 kPa, Liquid, Pycnometric method

C=CC(=O)OCCCC [butyl 2-propenoate] + CC#N
mass density [kg/m3]
Conditions | 293.15 K | 298.15 K | 303.15 K | 308.15 K | 313.15 K | 318.15 K
x2 = 0 | 898.85 | 894.1 | 889.35 | 884.6 | 879.85 | 875.1
x2 = 0.061 | 896.58 | 891.84 | 887.1 | 882.36 | 877.62 | 872.87
x2 = 0.1168 | 894.23 | 889.49 | 884.75 | 880.01 | 875.26 | 870.51
x2 = 0.1832 | 891.06 | 886.31 | 881.56 | 876.81 | 872.05 | 867.29
x2 = 0.2571 | 887.05 | 882.28 | 877.51 | 872.73 | 867.95 | 863.17
x2 = 0.3094 | 883.86 | 879.07 | 874.28 | 869.49 | 864.69 | 859.89
x2 = 0.3825 | 878.86 | 874.05 | 869.23 | 864.41 | 859.59 | 854.77
x2 = 0.4563 | 873.07 | 868.23 | 863.39 | 858.55 | 853.7 | 848.85
x2 = 0.5282 | 866.62 | 861.75 | 856.88 | 852.01 | 847.13 | 842.25
x2 = 0.5779 | 861.58 | 856.69 | 851.79 | 846.89 | 841.99 | 837.09
x2 = 0.6483 | 853.47 | 848.54 | 843.6 | 838.66 | 833.72 | 828.79
x2 = 0.7299 | 842.32 | 837.34 | 832.35 | 827.36 | 822.37 | 817.38
x2 = 0.8143 | 828.2 | 823.15 | 818.1 | 813.05 | 807.99 | 802.93
x2 = 0.9182 | 805.7 | 800.53 | 795.36 | 790.19 | 785.01 | 779.83

C=CC(=O)OC [methyl propenoate] + CC#N
mass density [kg/m3]
Conditions | 293.15 K | 298.15 K | 303.15 K | 308.15 K | 313.15 K | 318.15 K
x2 = 0 | 953.51 | 947.56 | 941.61 | 935.66 | 929.71 | 923.76
x2 = 0.0591 | 948.65 | 942.78 | 936.9 | 931.02 | 925.14 | 919.27
x2 = 0.1171 | 943.34 | 937.51 | 931.68 | 925.85 | 920.01 | 914.17
x2 = 0.17 | 938.02 | 932.22 | 926.42 | 920.62 | 914.81 | 909
x2 = 0.2356 | 930.83 | 925.06 | 919.29 | 913.52 | 907.75 | 901.97
x2 = 0.2977 | 923.4 | 917.66 | 911.92 | 906.18 | 900.43 | 894.68
x2 = 0.3615 | 915.12 | 909.41 | 903.7 | 897.99 | 892.28 | 886.56
x2 = 0.4343 | 904.86 | 899.19 | 893.52 | 887.85 | 882.17 | 876.49
x2 = 0.5014 | 894.57 | 888.94 | 883.31 | 877.67 | 872.03 | 866.39
x2 = 0.5738 | 882.48 | 876.9 | 871.32 | 865.73 | 860.14 | 854.55
x2 = 0.6537 | 867.83 | 862.31 | 856.79 | 851.26 | 845.73 | 840.2
x2 = 0.7623 | 845.33 | 839.89 | 834.45 | 829.01 | 823.57 | 818.13
x2 = 0.8155 | 833.04 | 827.65 | 822.26 | 816.87 | 811.47 | 806.07
x2 = 0.9074 | 809.47 | 804.14 | 798.81 | 793.47 | 788.13 | 782.79

C=CC(=O)OCC [ethyl propenoate] + CC#N
mass density [kg/m3]
Conditions | 293.15 K | 298.15 K | 303.15 K | 308.15 K | 313.15 K | 318.15 K
x2 = 0 | 921.76 | 915.95 | 910.14 | 904.33 | 898.52 | 892.71
x2 = 0.0611 | 918.24 | 912.49 | 906.74 | 900.99 | 895.24 | 889.48
x2 = 0.1197 | 914.45 | 908.75 | 903.05 | 897.35 | 891.64 | 885.93
x2 = 0.1852 | 909.73 | 904.07 | 898.4 | 892.73 | 887.06 | 881.39
x2 = 0.2385 | 905.48 | 899.84 | 894.2 | 888.55 | 882.9 | 877.25
x2 = 0.2966 | 900.45 | 894.83 | 889.21 | 883.58 | 877.95 | 872.32
x2 = 0.3675 | 893.69 | 888.1 | 882.5 | 876.9 | 871.3 | 865.7
x2 = 0.436 | 886.46 | 880.89 | 875.32 | 869.75 | 864.18 | 858.61
x2 = 0.4982 | 879.23 | 873.69 | 868.15 | 862.61 | 857.07 | 851.53
x2 = 0.5745 | 869.38 | 863.88 | 858.38 | 852.88 | 847.38 | 841.87
x2 = 0.6519 | 858.1 | 852.64 | 847.18 | 841.72 | 836.26 | 830.8
x2 = 0.725 | 846 | 840.58 | 835.16 | 829.74 | 824.32 | 818.9
x2 = 0.8185 | 828.05 | 822.69 | 817.33 | 811.97 | 806.6 | 801.23
x2 = 0.9145 | 805.92 | 800.6 | 795.28 | 789.96 | 784.63 | 779.3

C=CC(=O)OC(C)(C)C [tert-butyl acrylate] + CC#N
mass density [kg/m3]
Conditions | 293.15 K | 298.15 K | 303.15 K | 308.15 K | 313.15 K | 318.15 K
x2 = 0 | 884.13 | 879.66 | 875.2 | 870.74 | 866.28 | 861.82
x2 = 0.0772 | 881.52 | 877.05 | 872.58 | 868.11 | 863.64 | 859.17
x2 = 0.1496 | 878.71 | 874.23 | 869.74 | 865.25 | 860.76 | 856.27
x2 = 0.2216 | 875.53 | 871.02 | 866.51 | 861.99 | 857.47 | 852.95
x2 = 0.2983 | 871.66 | 867.11 | 862.56 | 858 | 853.44 | 848.88
x2 = 0.3643 | 867.87 | 863.28 | 858.69 | 854.1 | 849.51 | 844.91
x2 = 0.4345 | 863.31 | 858.68 | 854.05 | 849.42 | 844.78 | 840.14
x2 = 0.5074 | 857.88 | 853.2 | 848.52 | 843.84 | 839.16 | 834.47
x2 = 0.5769 | 851.91 | 847.18 | 842.45 | 837.72 | 832.98 | 828.24
x2 = 0.6465 | 844.97 | 840.18 | 835.39 | 830.6 | 825.8 | 821
x2 = 0.7141 | 837.1 | 832.24 | 827.38 | 822.52 | 817.66 | 812.8
x2 = 0.7821 | 827.76 | 822.83 | 817.9 | 812.96 | 808.02 | 803.08
x2 = 0.8603 | 814.71 | 809.68 | 804.64 | 799.6 | 794.56 | 789.51
x2 = 0.9345 | 799.24 | 794.08 | 788.92 | 783.75 | 778.58 | 773.41
